How the values were obtained:
[1] = test system: CERS3 gene; assay: Test for amplification of mRNA expression of CERS3 gene (quantitative real-time PCR, GAPDH internal standard); type: cell-based, human; conditions: NHEKs, GDS23 50 μM, culture time 36 hr, control = 1
Procedure: (§1) Normal human epidermal keratinocytes (NHEKs) were seeded on a 96-well plate at a cell density of 2.0×10^4cells/well using HuMedia-KG2 medium (manufactured by Kurabo Industries Ltd.), and cultured under the conditions of 37° C. and 5% CO2 for 24 hours.
(§2) Thereafter, a diacylglycerol PEG adduct was added thereto using HuMedia-KB2 medium (manufactured by Kurabo Industries Ltd.), and each was cultured under the conditions of 37° C. and 5% CO2 for a predetermined time. Table 1 represents the target gene, the types of diacylglycerol PEG adduct added, the adding amount, and the culture time. A control (no addition) was also cultured under the same conditions.
(§3) After the cells were cultured for each predetermined time, RNA was extracted from the cells of each sample and control. The extracted RNA was reverse-transcribed to prepare cDNA, and the mRNA of the target gene was quantified by quantitative real-time PCR expression analysis. GAPDH (glyceraldehyde 3-phosphate dehydrogenase) was used as an internal standard.
(§4) In the analysis, the mRNA expression level of each target gene was corrected with the value of the expression level of GAPDH, which is an internal standard in the same sample, and the correction value of the sample was calculated as a relative expression level when the correction value of the control was set to 1.

[2] = test system: SULT2B1 gene; assay: Test for amplification of mRNA expression of SULT2B1 gene (quantitative real-time PCR, GAPDH internal standard); type: cell-based, human; conditions: NHEKs, control = 1
Procedure: as §1, §2, §3, §4

[3] = test system: PPARA gene; assay: Test for amplification of mRNA expression of PPARA gene (quantitative real-time PCR, GAPDH internal standard); type: cell-based, human; conditions: NHEKs, GDS23 50 μM, culture time 24, 30, 36 hr, control = 1
Procedure: as §1, §2, §3, §4

[4] = test system: Three-dimensional cultured human epidermal model; assay: Hematoxylin-eosin staining and DAPI nuclear staining of epidermal model (cell abnormality check); type: cell-based; conditions: LabCyte EPI-MODEL24 6D, 50 μL of 2% GDS23 solution applied for 24 hours, collected 9 days after application
Procedure: Treatment of epidermal model Three-dimensional cultured human epidermal model (LabCyte EPI-MODEL24 6D: manufactured by Japan Tissue Engineering Co., Ltd.) was cultured in a medium (assay medium: manufactured by Japan Tissue Engineering Co., Ltd.) at 37° C. for 24 hours.
Thereafter, the medium was exchanged, and 50 μL of a sample prepared with purified water (2% preparation solution of GDS23) was applied to the surfaces of the stratum corneum, followed by continuous culture for 24 hours. The control for comparison was applied with purified water only.
Subsequently, the sample on the surface of the stratum corneum of the epidermal model was sucked up with a sterilized cotton swab to remove the excess sample, and then the epidermal model was continuously cultured without newly applying the sample on the surface of the stratum corneum, and the epidermal model was collected 9 days after the sample was applied.
After the blocking agent was aspirated, an anti-loricrin antibody (manufactured by Proteintech Japan) (diluted 50 times with a 3% BSA/PBS solution) was added to the section, and the primary antibody reaction was carried out overnight at 4° C. […]

[5] = test system: loricrin; assay: Test for detecting production of loricrin, loricrin immunostaining method; type: cell-based, human; conditions: LabCyte EPI-MODEL24 6D, 50 μL of 2% GDS23 solution applied for 24 hours, collected 9 days after application, vs purified water control
Procedure: A test for detecting the production of loricrin encoded by the LOR genes was performed using two staining methods: an immunostaining method using an anti-loricrin antibody and a hematoxylin-eosin staining method.
Treatment of epidermal model Three-dimensional cultured human epidermal model (LabCyte EPI-MODEL24 6D: manufactured by Japan Tissue Engineering Co., Ltd.) was cultured in a medium (assay medium: manufactured by Japan Tissue Engineering Co., Ltd.) at 37° C. for 24 hours. […]
After the blocking agent was aspirated, an anti-loricrin antibody (manufactured by Proteintech Japan) (diluted 50 times with a 3% BSA/PBS solution) was added to the section, and the primary antibody reaction was carried out overnight at 4° C. Thereafter, a Goat Anti-Rabbit IgG H&L (Alexa Fluor (registered trademark) 488 antibody (manufactured by Abcam PLC) (diluted 250 times with a 3% BSA/PBS solution) was added thereto, and the secondary antibody reaction was carried out for 1 hour at room temperature in a dark place. And then, nuclear staining was performed with DAPI diluted 200 times with a 3% BSA/PBS solution. A fluorescence microscope (BZ-X810, KEYENCE) was then used to observe the green and blue fluorescence. The green fluorescence indicates the presence of loricrin. The blue fluorescence stains the nuclei of the epidermal model to confirm that the cells are normal.

[6] = test system: LOR gene; assay: Test for amplification of mRNA expression of LOR gene (quantitative real-time PCR, GAPDH internal standard); type: cell-based, human; conditions: NHEKs, GDM12 100 μM, culture time 30 hr, control = 1
Procedure: as §1, §2, §3, §4

[7] = test system: IVL gene; assay: Test for amplification of mRNA expression of IVL gene (quantitative real-time PCR, GAPDH internal standard); type: cell-based, human; conditions: NHEKs, GDM12 100 μM, culture time 30 hr, control = 1
Procedure: as §1, §2, §3, §4

Substance | relative expression level of CERS3 genes [1] | relative expression level of SULT2B1 genes ([2]; GDS23 50 μM, culture time 24 hr) | relative expression level of PPARA genes [3] | abnormality in the cells of the epidermal model (blue fluorescence, hematoxylin-eosin staining) [4] | production amount of loricrin in the stratum corneum (green fluorescence) [5] | relative expression level of SULT2B1 genes ([2]; GDM12 100 μM, culture time 30 hr) | relative expression level of LOR genes [6] | relative expression level of IVL genes [7]
PEG-23 glycerol distearate [GDS23] | about 2 times that of the control | about 1.2 times that of the control | about 2.2 times that of the control | no abnormality in the cells of the epidermal model | higher than that of the control epidermal model | – | – | –
PEG-12 glycerol dimyristate [GDM12] | – | – | – | – | – | about 1.6 times that of the control | about 1.3 times that of the control | about 1.5 times that of the control
